From patent publication US20070244009A1, “Agent for Inhibiting Bolting Induction and/or Floral-Bud Differentiation in Plants” (National University Corporation Hokkaido Universit, priority 2004, published 2007)
“Also recorded” adds a separate entry of the source.

Tests used:
[1] = system: potato; details: solution sprayed to leaflets of potato, non-inducing conditions; cited from earlier work
[2] = system: morning glory; details: in vivo; cited from earlier work
[3] = system: potato; details: culture of a single node section of a potato stem; cited from earlier work
[4] = system: spinach (Spinacia oleracea L.); test: Stem elongation (bolting) of spinach after foliar spraying; format: in vivo
Method: (§1) In other words, while they searched for the substance having bolting induction inhibition and/or floral differentiation inhibition activities, they examine the effect of theobroxide on stem elongation and differentiation of floral-buds in spinach (long-day plant), after spraying theobroxide on the surfaces of spinach leaves. The day-length conditions examined were long-day (16 hours-light period, 8 hours-dark period), and short-day (10 hours-light period, 14 hours-dark period). The concentration of theobroxide for foliar application is set at 10^−3 M, and testing was started after a preliminary growth (two weeks, long-day condition). The spraying condition was that 5 ml of the solution was sprayed over four weeks every two days after the preliminary growth. As the results, under the short-day condition (bolting non-inducing condition), no difference was observed when compared to the control. Under the long-day condition (bolting induction and floral differentiation condition), the stem elongation of the theobroxide treated plants was suppressed 37% in the fourth week, when compared to that of the control.
(§2) Before the test, spinach was grown for 5 weeks in a growth chamber (NK Systems, Biotron NC350), under a short-day (SD) condition (light period-10 hours/dark period-14 hours) with a peat moss/Pearlite mixture (1:1.5, v/v). A test solution was sprayed on leaves every two days. Water and Hyponex in liquid form (manufactured by Hyponex Japan Co.) were given to the plants every two days and once a week, respectively. The long-day (LD) and short-day (SD) photoperiodic cycles were 16-hour light period/8-hour dark period, and 10-hours light period/14-hour dark period, respectively. The growth chamber was equipped with 20 fluorescent lamps (NEC FL40SEX-N-HG) to provide a light intensity of 90 μmol^−2s^−1, and set at 25 degrees centigrade and the relative humidity of 60%. The test used ten plants for each processing, and was repeated at least three times.
The theobroxide for the test was isolated from the incubation filtrate of Lasiodiplodia theobromae. The data of NMR, RI and MS were compared with the standard one and their structures were confirmed. Theobroxide was dissolved in distilled water that includes Tween 20 (100 ppm) to adjust its concentration to 10^−3M. To the plants for the control, the same amount of distilled water including 100 ppm of Tween 20 was given. The two kinds of solution were given to leaves of the plants, the total of 5 ml per plant, every two days, using plastic spray bottles. […] Stem heights from the bases of stems to the tip of the stems or the inflorescence were measured (Plant Physiol.: 821-827,1971).

[5] = system: morning glory; details: solution sprayed to leaves of morning glory, non-inducing conditions; cited from earlier work
[6] = system: spinach (Spinacia oleracea L.); test: Floral differentiation of spinach after foliar spraying; format: in vivo; details: 10^-3 M foliar spray; for Floral Differentiation Rate (%) Average: mean of three tests
Method: as §1, §2
The theobroxide for the test was isolated from the incubation filtrate of Lasiodiplodia theobromae. The data of NMR, RI and MS were compared with the standard one and their structures were confirmed. Theobroxide was dissolved in distilled water that includes Tween 20 (100 ppm) to adjust its concentration to 10^−3M. To the plants for the control, the same amount of distilled water including 100 ppm of Tween 20 was given. The two kinds of solution were given to leaves of the plants, the total of 5 ml per plant, every two days, using plastic spray bottles. After planting them in advance, 20 boxes were transferred to the LD condition for a LD treatment (10 boxes of which was for control, and the other 10 boxes for the theobroxide treatment). After planting them in advance, 20 boxes were left under the SD for a SD treatment as before (10 boxes of which is for the control, and the other 10 boxes for theobroxide treatment). Stem heights from the bases of stems to the tip of the stems or the inflorescence were measured (Plant Physiol.: 821-827,1971).
In addition, in the tests shown in Table 1, plants were grown under a long-day condition for six weeks. The theobroxide treatment was started after they were transferred to the long-day condition. After six weeks, the plants were collected, and the number of the plants in which floral differentiation took place was counted.

## CC1=CC(O)C2OC2C1O (stereo not shown) [theobroxide, 3,6-dihydroxy-4,5-epoxy-1-methylcyclohexene]
[1]
  potato tuber formation: strong potato tuber formation
[2]
  effect on stem elongation of morning glory: inhibitory effect
[3]
  potato tuber formation activity: strong potato tuber formation activity
[4]; induction condition (LD), theobroxide treatment
  stem elongation (FIGS. 3A-B, FIG. 4), result in words: stem elongation was suppressed
[4]; long-day (LD) condition, 10^-3 M foliar spray, after six weeks
  suppression effect on stem lengths compared to the control: 37%
[4]; long-day condition, 10^-3 M foliar spray, 5 ml every two days, fourth week
  suppression of stem elongation compared to the control: 37%
[4]; short-day condition (bolting non-inducing), 10^-3 M foliar spray
  difference in stem lengths compared to the control: no difference; also recorded: not apparent difference
[5]
  flower buds inducing activity: flower buds inducing activity
[6]; long-day condition, six weeks, Test 1
  Floral Differentiation Rate (%) Test 1: 50% (5/10)
[6]; long-day condition, six weeks, Test 2
  Floral Differentiation Rate (%) Test 2: 40% (4/10)
[6]; long-day condition, six weeks
  Floral Differentiation Rate (%) Average: 43.3%
[6]; long-day condition, six weeks, listed as Theobroxide
  Floral Differentiation Rate (%) Average: 43.3%
[6]; short-day condition
  difference in flower formation compared to the control: no difference; also recorded: not apparent difference
